# Reference: patent publication US20220125746A1, “METHOD OF PREVENTING OR TREATING TREATMENT-INDUCED GASTROINTESTINAL INJURY” (priority 2019, published 2022)
# Counter-ions that a name gives are not always drawn.
# Key:
# [1] = system: Lewis lung carcinoma (LLC) tumors; experiment: LLC tumor-bearing mice treated with CPT-11 six times over 2 weeks; assay type: in vivo, mouse
# Protocol: For tumor experiments, 4 million LLC cells [American Type Culture Collection (ATCC)] were injected into the flanks of WT and Puma KO mice and allowed to grow for 11 days. Mice were then treated with CPT-11 (200 mg/kg) three times per week for 2 weeks. PUMAi (10 mg/kg) or vehicle control was administered by intraperitoneal injection 2 hours before and 20 hours after each dose of CPT-11. Mice were sacrificed 4 hours after the final CPT-11 treatment.
# For tumor experiments, mice were treated with CPT-11 three times per week for two weeks. Mice receiving PUMAi were treated 2 hours before each dose of CPT-11 and 20 hours after. Mice were sacrificed four hours after the final CPT-11 treatment (FIG. 13A). Tumor volumes were measured with calipers and calculated as volume=(length x width2)/2. Mice were 7-9 weeks old, and roughly equal numbers of male and female animals were used. To account for variations in starting body weights, the values in FIGS. 3 and 4 are expressed as a percentage of the respective mouse weights at the time of the first CPT-11 treatment.
# Immediately after sacrifice, about 10-cm portion of the jejunum was removed and carefully rinsed with ice-cold saline. The tissue was opened longitudinally and tacked to a foam board for fixation overnight in 10% formalin. Tissues were then rolled up into “swiss rolls” and embedded in paraffin. For tumor analysis, flank tumors were removed, measured, and cut into pieces for either formalin fixation or flash freezing in a dry ice/ethanol bath. Tissue sections (5 um) were deparaffinized and rehydrated through graded ethanols. Histological analysis was performed by hematoxylin and eosin (H&E) staining.
# Average villus height was determined by measuring 40 to 50 villi from different locations of the small intestine, from at least three different animals per group, and reported as means A} SEM. Measurements were made from the top of the crypt to the tip of the villus using 100 Å˜H&E images and SPOT 5.1 Advanced software (Diagnostic Instruments Inc.).
# Neutrophil IF. Sections were prepared as described above. […] Sections were then incubated with AlexaFluor-594 goat antirat secondary antibodies (1:200; A11007; Invitrogen) for 1 hour at room temperature and counterstained with VectaShield plus DAPI.
# [2] = system: primary human colonic organoids; experiment: Human colonic organoids treated with CPT; assay type: cell-based; conditions: PUMAi 50 uM
# Protocol: Fresh mucosal scrapings from 10 cm of jejunum were washed in cold PBS, resuspended in 700 ul of RNA lysis buffer, and homogenized in a Dounce homogenizer. RNA was isolated using the Quick-RNA MiniPrep kit (Zymo Research) according to the manufacturer's instructions. Organoids were freed from Matrigel using Cell Recovery Solution (Corning), as described in, before RNA isolation. Complementary DNA was generated from 2 ug of total RNA from mice or ˜100 ng of total RNA from colonic organoids and was pooled from three mice or three wells of organoid culture per treatment group using SuperScript III reverse transcriptase (Invitrogen) and random primers. Gene expression was normalized to Gapdh. Representative results are shown, and similar results were obtained in at least three independent experiments. Details on mouse and human primers are found in Tables 1 and 2.
# Surgically resected intestinal tissues were obtained from Health Science Tissue Bank (HSTB) of UPMC Shadyside Hospital and UPMC Presbyterian Hospital. All samples were obtained with informed consent and approval by the University of Pittsburgh Ethics Committee. Human normal colon crypt isolation and organoid development were performed as previously described with modifications. The complete culture medium for normal human colon organoids contains advanced DMEM/F12 (12634-010, Invitrogen) supplemented with 1× penicillin/streptomycin (15140-122, Invitrogen), 10 mM HEPES (15630-106, Invitrogen), 2 mM GlutaMAX (Invitrogen), 1× B27 (17504-044, Invitrogen), 1XN2 (17502-048, Invitrogen), 1 mM N-Acetylcysteine (A0737, Sigma), 10 nM [leu-15]-Gastrin (G9145, Sigma), 10 mM nicotinamide (N0636, Sigma), 10 μM SB202190 (S7067, Sigma), 50 ng/ml recombinant murine EGF (315-09, Peprotech), 0.5 μM A83-01 (2939, Tocris Bioscience), 10 nM PGE2 (22-961-0, Tocris Bioscience), and 50% WRN-conditioned medium (vol/vol). Freshly isolated crypts were cultured with the same medium plus 10 μM Y-27632 and 100 μg/ml Primocin. Organoids 100 p.m or greater in diameter were enumerated on day 6 after CPT treatment. […]
# WT mice = experiment: Survival after total body irradiation; assay type: in vivo, mouse; conditions: 9.5 and 15 gray TBI; PUMAi 10 mg/kg 30 min before and after, then daily for 4 days
# Protocol: (FIG. 12A) and (FIG. 12B) Survival of WT mice treated with 3 daily doses of 180 mg/kg/day (A) and 250 mg/kg/day (B) CPT-11, respectively, on days 0, 1, and 2. PUMAi (10 mg/kg) was given 2 hours before each dose of CPT-11 and 20 hours after the final dose. (FIG. 12C) and (FIG. 12D) Survival of WT mice after total body irradiation (TBI) at 9.5 Gy (FIG. 12C) and 15 Gy (FIG. 12D). PUMAi (10 mg/kg) was given 30 min before and 30 min after TBI, and then daily for 4 days. Survivors at 9.5 Gy TBI in C were sacrificed on day 40 with no obvious health problems. P values were calculated by log-rank test.
# [3] = system: colon cancer cell line HCT-116; experiment: PUMA-induced apoptosis inhibition in HCT-116
# Protocol: PUMAi was added to cells at 25 uM at the same time as CPT.
# A minimum of 300 cells per treatment were analyzed in triplicate.
compound,measurement,setting,value
"OCCN1CCN(CC(O)COc2ccc3ccccc3c2)CC1 (stereo not drawn) [PUMAi, 1-[4-(2-hydroxyethyl)-1-piperazinyl]-3-(2-naphthyloxy)-2-propanol dihydrochloride]","CPT-11-induced weight loss, intestinal damage and lethality",[1]; PUMAi 10 mg/kg 2 h before and 20 h after each CPT-11 dose,highly resistant
same,tumor response to CPT-11,"[1]; PUMAi 10 mg/kg 2 h before and 20 h after each CPT-11 dose, vs vehicle group",comparable tumor response
same,% mice compieting treatment,"[1]; WT mice, LLC tumor experiments",100% (5/5)
same,grooming and physical activity,[1]; daily inspections throughout the study,improved grooming and physical activity
same,CPT-induced caspase-3 activation,[2]; 24 h after CPT,inhibited CPT-induced caspase-3 activation
same,CPT-induced expression of WNT and NOTCH targets,[2]; 24 h after CPT,suppressed CPT-induced expression of WNT and NOTCH targets
same,organoid growth after CPT,"[2]; CPT 500 nM 24 h, day 6",enhanced organoid growth
same,survival after total body irradiation,WT mice,increased the survival
same,Apoptosis inhibition of HCT-116,[3],17%
